Like-named read-outs stand apart in the source and are kept apart here.
Experiments:
Format in all cases: binding
broad panel of kinases [1] = target: broad panel of kinases (Homo sapiens, UniProt P29323); details: EPHB2; 1 μM
broad panel of kinases [2] = target: broad panel of kinases (Homo sapiens, UniProt O96017); details: CHEK2; 1 μM
broad panel of kinases [3] = target: broad panel of kinases (Homo sapiens, UniProt O15530); details: PDPK1; 1 μM
broad panel of kinases [4] = target: broad panel of kinases (Homo sapiens, UniProt Q00535); details: CDK5; 1 μM
broad panel of kinases [5] = target: broad panel of kinases (Homo sapiens, UniProt Q08345); details: DDR1; 1 μM
broad panel of kinases [6] = target: broad panel of kinases (Homo sapiens, UniProt Q96D53); details: ADCK4; 1 μM
broad panel of kinases [7] = target: broad panel of kinases (Homo sapiens, UniProt Q9HC98); details: NEK6; 1 μM
broad panel of kinases [8] = target: broad panel of kinases (Homo sapiens, UniProt Q9H2X6); details: HIPK2; 1 μM
broad panel of kinases [9] = target: broad panel of kinases (Homo sapiens, UniProt O75582); details: 1 μM
broad panel of kinases [10] = target: broad panel of kinases (Homo sapiens, UniProt Q9HBY8); details: SGK2; 1 μM
broad panel of kinases [11] = target: broad panel of kinases (Homo sapiens, UniProt P36896); details: ACVR1B; 1 μM
broad panel of kinases [12] = target: broad panel of kinases (Homo sapiens, UniProt P07947); details: YES; 1 μM
broad panel of kinases [13] = target: broad panel of kinases (Homo sapiens, UniProt P36888, R834Q); details: FLT3(R834Q); 1 μM
broad panel of kinases [14] = target: broad panel of kinases (Homo sapiens, UniProt Q16566); details: CAMK4; 1 μM
broad panel of kinases [15] = target: broad panel of kinases (Homo sapiens, UniProt P21860); details: ERBB3; 1 μM
broad panel of kinases [16] = target: broad panel of kinases (Homo sapiens, UniProt Q13873); details: BMPR2; 1 μM
broad panel of kinases [17] = target: broad panel of kinases (Homo sapiens, UniProt P42336, Q546K); details: PIK3CA(Q546K); 1 μM
broad panel of kinases [18] = target: broad panel of kinases (Homo sapiens, UniProt P00519, E255K); details: ABL1(E255K)-phosphorylated; 1 μM
broad panel of kinases [19] = target: broad panel of kinases (Homo sapiens, UniProt P0C264); details: SgK110; 1 μM
broad panel of kinases [20] = target: broad panel of kinases (Homo sapiens, UniProt Q9H0K1); details: SIK2; 1 μM
broad panel of kinases [21] = target: broad panel of kinases (Homo sapiens, UniProt P45985); details: MEK4; 1 μM
broad panel of kinases [22] = target: broad panel of kinases (Homo sapiens, UniProt Q96Q40)
broad panel of kinases [23] = target: broad panel of kinases (Homo sapiens, UniProt Q9NRP7); details: STK36; 1 μM
broad panel of kinases [24] = target: broad panel of kinases (Homo sapiens, UniProt P51813); details: BMX; 1 μM
broad panel of kinases [25] = target: broad panel of kinases (Homo sapiens, UniProt P35968); details: VEGFR2; 1 μM
broad panel of kinases [26] = target: broad panel of kinases (Homo sapiens, UniProt P51812); details: 1 μM
broad panel of kinases [27] = target: broad panel of kinases (Homo sapiens, UniProt Q6ZN16); details: MAP3K15; 1 μM
broad panel of kinases [28] = target: broad panel of kinases (Homo sapiens, UniProt P51451); details: BLK; 1 μM
broad panel of kinases [29] = target: broad panel of kinases (Homo sapiens, UniProt Q16539); details: p38-alpha; 1 μM
broad panel of kinases [30] = target: broad panel of kinases (Homo sapiens, UniProt O96013); details: PAK4; 1 μM
broad panel of kinases [31] = target: broad panel of kinases (Homo sapiens, UniProt Q86YV6); details: MYLK4; 1 μM
broad panel of kinases [32] = target: broad panel of kinases (Homo sapiens, UniProt P00533, L858R/T790M); details: EGFR(L858R, T790M); 1 μM
broad panel of kinases [33] = target: broad panel of kinases (Homo sapiens, UniProt Q8N568); details: DCAMKL2; 1 μM
broad panel of kinases [34] = target: broad panel of kinases (Homo sapiens, UniProt P27037); details: ACVR2A; 1 μM
broad panel of kinases [35] = target: broad panel of kinases (Homo sapiens, UniProt Q96BR1); details: SGK3; 1 μM
broad panel of kinases [36] = target: broad panel of kinases (Homo sapiens, UniProt P15735); details: PHKG2; 1 μM

Sequence of broad panel of kinases (Homo sapiens, UniProt P29323) (P29323 19-1055 limits assumed): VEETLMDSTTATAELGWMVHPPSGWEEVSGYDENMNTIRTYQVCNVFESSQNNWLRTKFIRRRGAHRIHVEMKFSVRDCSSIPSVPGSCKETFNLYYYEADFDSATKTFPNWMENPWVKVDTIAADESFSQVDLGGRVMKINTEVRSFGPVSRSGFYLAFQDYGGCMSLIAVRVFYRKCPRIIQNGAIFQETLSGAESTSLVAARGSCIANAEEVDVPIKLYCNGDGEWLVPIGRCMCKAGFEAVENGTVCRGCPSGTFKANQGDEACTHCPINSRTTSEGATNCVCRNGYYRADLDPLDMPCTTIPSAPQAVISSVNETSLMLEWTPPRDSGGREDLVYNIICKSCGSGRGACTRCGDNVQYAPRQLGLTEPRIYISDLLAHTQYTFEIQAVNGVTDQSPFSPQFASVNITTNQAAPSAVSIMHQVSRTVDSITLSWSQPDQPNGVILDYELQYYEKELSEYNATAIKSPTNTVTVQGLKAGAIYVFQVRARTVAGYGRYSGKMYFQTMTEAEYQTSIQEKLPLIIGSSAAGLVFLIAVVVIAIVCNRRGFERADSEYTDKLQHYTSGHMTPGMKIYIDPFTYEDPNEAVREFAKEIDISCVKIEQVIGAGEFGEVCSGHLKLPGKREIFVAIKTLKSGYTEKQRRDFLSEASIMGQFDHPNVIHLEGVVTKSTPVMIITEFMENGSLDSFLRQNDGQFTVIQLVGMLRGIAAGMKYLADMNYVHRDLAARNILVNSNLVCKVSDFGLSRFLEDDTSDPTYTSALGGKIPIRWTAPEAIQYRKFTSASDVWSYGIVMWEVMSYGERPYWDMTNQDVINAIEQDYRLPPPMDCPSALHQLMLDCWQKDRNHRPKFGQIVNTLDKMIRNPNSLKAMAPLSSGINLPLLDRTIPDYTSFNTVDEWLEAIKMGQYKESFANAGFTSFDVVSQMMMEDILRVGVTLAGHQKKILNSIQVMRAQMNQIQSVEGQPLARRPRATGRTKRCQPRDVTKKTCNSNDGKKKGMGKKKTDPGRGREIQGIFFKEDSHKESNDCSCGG
Sequence of broad panel of kinases (Homo sapiens, UniProt P07947) (P07947 2-543 limits assumed): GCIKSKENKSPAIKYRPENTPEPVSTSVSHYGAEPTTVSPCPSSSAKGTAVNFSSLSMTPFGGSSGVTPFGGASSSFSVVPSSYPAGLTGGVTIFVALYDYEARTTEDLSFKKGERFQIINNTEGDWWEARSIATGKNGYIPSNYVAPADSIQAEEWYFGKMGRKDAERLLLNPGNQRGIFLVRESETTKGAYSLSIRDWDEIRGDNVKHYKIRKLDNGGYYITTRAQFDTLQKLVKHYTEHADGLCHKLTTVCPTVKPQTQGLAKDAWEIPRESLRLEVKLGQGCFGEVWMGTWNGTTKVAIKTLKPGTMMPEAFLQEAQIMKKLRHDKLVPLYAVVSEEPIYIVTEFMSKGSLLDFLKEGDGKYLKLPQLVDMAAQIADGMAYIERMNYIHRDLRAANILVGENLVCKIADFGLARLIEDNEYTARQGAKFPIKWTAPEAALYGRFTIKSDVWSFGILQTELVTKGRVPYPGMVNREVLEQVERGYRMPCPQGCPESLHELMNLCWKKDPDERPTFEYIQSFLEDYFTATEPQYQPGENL
Sequence of broad panel of kinases (Homo sapiens, UniProt P45985) (P45985 2-399 limits assumed): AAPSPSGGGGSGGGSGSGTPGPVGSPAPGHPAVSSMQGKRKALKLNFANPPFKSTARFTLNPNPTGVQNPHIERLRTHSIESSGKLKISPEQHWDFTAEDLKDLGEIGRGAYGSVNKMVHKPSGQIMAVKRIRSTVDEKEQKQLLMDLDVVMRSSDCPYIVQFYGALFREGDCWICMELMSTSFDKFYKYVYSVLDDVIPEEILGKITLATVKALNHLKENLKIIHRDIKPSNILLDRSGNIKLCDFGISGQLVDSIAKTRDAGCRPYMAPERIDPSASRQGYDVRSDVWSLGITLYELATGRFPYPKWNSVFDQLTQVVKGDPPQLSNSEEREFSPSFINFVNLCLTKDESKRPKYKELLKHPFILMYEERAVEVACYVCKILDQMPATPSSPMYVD
Sequence of broad panel of kinases (Homo sapiens, UniProt Q08345) (Q08345 19-913 limits assumed): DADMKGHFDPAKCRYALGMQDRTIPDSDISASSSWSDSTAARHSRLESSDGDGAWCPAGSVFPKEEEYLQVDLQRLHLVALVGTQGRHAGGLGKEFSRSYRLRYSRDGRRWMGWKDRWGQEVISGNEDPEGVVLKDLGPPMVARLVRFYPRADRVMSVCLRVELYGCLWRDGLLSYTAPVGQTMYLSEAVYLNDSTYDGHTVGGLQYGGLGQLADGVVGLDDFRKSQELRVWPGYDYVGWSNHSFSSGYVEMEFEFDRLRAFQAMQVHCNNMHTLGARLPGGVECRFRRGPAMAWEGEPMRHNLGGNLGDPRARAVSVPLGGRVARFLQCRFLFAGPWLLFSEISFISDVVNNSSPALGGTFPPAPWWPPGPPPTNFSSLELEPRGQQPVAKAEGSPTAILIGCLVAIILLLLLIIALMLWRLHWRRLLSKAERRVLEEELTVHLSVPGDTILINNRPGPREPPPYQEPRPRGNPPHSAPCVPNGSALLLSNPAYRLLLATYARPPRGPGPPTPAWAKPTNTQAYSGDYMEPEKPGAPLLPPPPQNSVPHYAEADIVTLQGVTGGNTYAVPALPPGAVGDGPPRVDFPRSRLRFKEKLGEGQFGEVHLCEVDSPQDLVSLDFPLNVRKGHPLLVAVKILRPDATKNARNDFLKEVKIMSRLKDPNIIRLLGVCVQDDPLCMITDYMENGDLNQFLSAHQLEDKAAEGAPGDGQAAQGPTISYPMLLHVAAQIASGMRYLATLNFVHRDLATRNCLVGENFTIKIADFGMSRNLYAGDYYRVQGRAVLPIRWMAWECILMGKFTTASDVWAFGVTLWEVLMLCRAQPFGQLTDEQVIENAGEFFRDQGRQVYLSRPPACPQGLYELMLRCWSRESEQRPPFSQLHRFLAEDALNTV
Sequence of broad panel of kinases (Homo sapiens, UniProt P51451) (P51451 2-505 limits assumed): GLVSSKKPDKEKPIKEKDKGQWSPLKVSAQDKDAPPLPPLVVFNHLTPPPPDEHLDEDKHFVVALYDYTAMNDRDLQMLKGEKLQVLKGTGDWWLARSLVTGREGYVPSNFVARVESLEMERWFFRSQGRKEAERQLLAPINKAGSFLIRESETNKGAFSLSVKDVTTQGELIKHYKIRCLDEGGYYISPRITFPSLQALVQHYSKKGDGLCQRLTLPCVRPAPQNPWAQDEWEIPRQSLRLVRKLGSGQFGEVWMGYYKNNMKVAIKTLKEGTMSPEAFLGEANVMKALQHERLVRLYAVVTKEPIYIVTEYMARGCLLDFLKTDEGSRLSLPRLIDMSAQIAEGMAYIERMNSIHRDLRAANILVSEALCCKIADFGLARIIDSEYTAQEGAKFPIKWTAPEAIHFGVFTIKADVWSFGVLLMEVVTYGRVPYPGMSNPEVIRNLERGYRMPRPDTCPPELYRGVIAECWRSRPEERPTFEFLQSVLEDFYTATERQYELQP
Sequence of broad panel of kinases (Homo sapiens, UniProt Q16539) (Q16539 2-360 limits assumed): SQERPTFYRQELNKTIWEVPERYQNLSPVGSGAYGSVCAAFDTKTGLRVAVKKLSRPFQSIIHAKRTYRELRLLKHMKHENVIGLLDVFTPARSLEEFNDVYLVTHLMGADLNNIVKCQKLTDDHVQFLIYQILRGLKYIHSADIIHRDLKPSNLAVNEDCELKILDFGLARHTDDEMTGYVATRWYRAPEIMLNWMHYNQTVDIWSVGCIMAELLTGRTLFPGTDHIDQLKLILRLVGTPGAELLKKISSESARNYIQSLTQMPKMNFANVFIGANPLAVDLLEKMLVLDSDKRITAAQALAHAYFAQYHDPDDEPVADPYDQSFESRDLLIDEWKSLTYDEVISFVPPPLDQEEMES
Sequence of broad panel of kinases (Homo sapiens, UniProt P21860) (P21860 20-1342 limits assumed): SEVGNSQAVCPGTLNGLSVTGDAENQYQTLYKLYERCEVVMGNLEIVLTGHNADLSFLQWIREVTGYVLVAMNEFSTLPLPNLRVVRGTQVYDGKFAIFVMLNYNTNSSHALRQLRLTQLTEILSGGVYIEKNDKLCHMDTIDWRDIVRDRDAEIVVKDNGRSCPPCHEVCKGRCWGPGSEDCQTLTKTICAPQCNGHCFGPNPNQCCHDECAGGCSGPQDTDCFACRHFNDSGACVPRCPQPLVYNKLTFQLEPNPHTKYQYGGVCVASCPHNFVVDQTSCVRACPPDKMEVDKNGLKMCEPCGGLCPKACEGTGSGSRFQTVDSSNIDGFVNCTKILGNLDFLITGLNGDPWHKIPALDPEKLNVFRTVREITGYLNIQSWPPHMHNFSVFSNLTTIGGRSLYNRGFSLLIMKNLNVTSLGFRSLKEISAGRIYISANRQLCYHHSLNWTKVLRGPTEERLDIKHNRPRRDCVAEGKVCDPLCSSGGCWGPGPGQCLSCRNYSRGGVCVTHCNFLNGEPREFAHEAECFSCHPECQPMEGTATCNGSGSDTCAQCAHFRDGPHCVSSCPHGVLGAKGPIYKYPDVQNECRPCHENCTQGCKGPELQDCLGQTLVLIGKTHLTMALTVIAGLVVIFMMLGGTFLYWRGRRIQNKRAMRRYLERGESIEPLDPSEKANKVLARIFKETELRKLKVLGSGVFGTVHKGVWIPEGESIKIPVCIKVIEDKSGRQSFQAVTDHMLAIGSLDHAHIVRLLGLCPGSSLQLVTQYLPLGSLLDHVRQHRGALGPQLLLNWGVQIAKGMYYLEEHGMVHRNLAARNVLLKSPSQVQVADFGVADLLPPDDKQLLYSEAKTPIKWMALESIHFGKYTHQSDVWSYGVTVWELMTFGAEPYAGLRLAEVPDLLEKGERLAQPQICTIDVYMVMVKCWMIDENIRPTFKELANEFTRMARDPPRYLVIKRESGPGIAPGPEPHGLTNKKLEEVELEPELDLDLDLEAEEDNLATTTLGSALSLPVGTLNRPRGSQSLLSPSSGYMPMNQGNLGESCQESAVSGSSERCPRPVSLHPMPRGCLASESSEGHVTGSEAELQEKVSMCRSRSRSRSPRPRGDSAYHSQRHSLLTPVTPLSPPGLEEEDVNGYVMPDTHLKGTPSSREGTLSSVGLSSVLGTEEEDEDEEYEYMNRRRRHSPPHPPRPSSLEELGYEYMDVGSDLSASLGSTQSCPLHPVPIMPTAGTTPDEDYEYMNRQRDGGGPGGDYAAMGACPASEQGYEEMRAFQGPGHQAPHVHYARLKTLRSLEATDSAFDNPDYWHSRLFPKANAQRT

Compound | percent of control binding remaining (lower = stronger binding) (broad panel of kinases [1]) [%] | percent of control binding remaining (lower = stronger binding) (broad panel of kinases [2]) [%] | percent of control binding remaining (lower = stronger binding) (broad panel of kinases [3]) [%] | percent of control binding remaining (lower = stronger binding) (broad panel of kinases [4]) [%] | percent of control binding remaining (lower = stronger binding) (broad panel of kinases [5]) [%] | percent of control binding remaining (lower = stronger binding) (broad panel of kinases [6]) [%] | percent of control binding remaining (lower = stronger binding) (broad panel of kinases [7]) [%] | percent of control binding remaining (lower = stronger binding) (broad panel of kinases [8]) [%] | percent of control binding remaining (lower = stronger binding) (broad panel of kinases [9]; RPS6KA5(Kin.Dom.1-N-terminal)) [%] | percent of control binding remaining (lower = stronger binding) (broad panel of kinases [9]; RPS6KA5(Kin.Dom.2-C-terminal)) [%] | percent of control binding remaining (lower = stronger binding) (broad panel of kinases [10]) [%] | percent of control binding remaining (lower = stronger binding) (broad panel of kinases [11]) [%] | percent of control binding remaining (lower = stronger binding) (broad panel of kinases [12]) [%] | percent of control binding remaining (lower = stronger binding) (broad panel of kinases [13]) [%] | percent of control binding remaining (lower = stronger binding) (broad panel of kinases [14]) [%] | percent of control binding remaining (lower = stronger binding) (broad panel of kinases [15]) [%] | percent of control binding remaining (lower = stronger binding) (broad panel of kinases [16]) [%] | percent of control binding remaining (lower = stronger binding) (broad panel of kinases [17]) [%] | percent of control binding remaining (lower = stronger binding) (broad panel of kinases [19]) [%] | percent of control binding remaining (lower = stronger binding) (broad panel of kinases [20]) [%] | also measured
C=CC(=O)N1CC[C@H](Nc2nc(CN3CCOCC3)cc(Nc3ncc(C(=O)Nc4c(C)cccc4C)s3)n2)C1 [Example I-2] | 0 | 97 | 98 | 100 | 0.2 | 95 | 100 | 97 | 98 | 94 | 72 | 68 | 0 | 100 | 96 | 0.1 | 100 | 83 | 59 | 92 | percent of control binding remaining (lower = stronger binding) (broad panel of kinases [18]): 0.45%; percent of control binding remaining (lower = stronger binding) (broad panel of kinases [21]): 100%; % change compared to control (broad panel of kinases [22]): 100%; percent of control binding remaining (lower = stronger binding) (broad panel of kinases [23]): 3.5%; percent of control binding remaining (lower = stronger binding) (broad panel of kinases [24]): 3.6%; percent of control binding remaining (lower = stronger binding) (broad panel of kinases [25]): 100%; percent of control binding remaining (lower = stronger binding) (broad panel of kinases [26]; RSK2(Kin.Dom.1-N-terminal)): 95%; percent of control binding remaining (lower = stronger binding) (broad panel of kinases [26]; RSK2(Kin.Dom.2-C-terminal)): 100%; percent of control binding remaining (lower = stronger binding) (broad panel of kinases [27]): 92%; percent of control binding remaining (lower = stronger binding) (broad panel of kinases [28]): 0%; percent of control binding remaining (lower = stronger binding) (broad panel of kinases [29]): 0.1%; percent of control binding remaining (lower = stronger binding) (broad panel of kinases [30]): 100%; percent of control binding remaining (lower = stronger binding) (broad panel of kinases [31]): 98%; percent of control binding remaining (lower = stronger binding) (broad panel of kinases [32]): 48%; percent of control binding remaining (lower = stronger binding) (broad panel of kinases [33]): 98%; percent of control binding remaining (lower = stronger binding) (broad panel of kinases [34]): 76%; percent of control binding remaining (lower = stronger binding) (broad panel of kinases [35]): 100%; percent of control binding remaining (lower = stronger binding) (broad panel of kinases [36]): 96%
C=CC(=O)N1CC[C@H](Nc2nccc(Nc3ncc(C(=O)Nc4c(C)cccc4C)s3)n2)C1 [Example I-3] | 0 | 97 | 87 | 100 | 0.15 | 92 | 64 | 100 | 88 | 52 | 76 | 100 | 0 | 100 | 84 | 0.8 | 100 | 100 | 95 | 98 | % change compared to control (broad panel of kinases [18]): 0.5%; percent of control binding remaining (lower = stronger binding) (broad panel of kinases [21]): 100%; % change compared to control (broad panel of kinases [22]): 95%; percent of control binding remaining (lower = stronger binding) (broad panel of kinases [23]): 25%; percent of control binding remaining (lower = stronger binding) (broad panel of kinases [24]): 4.9%; percent of control binding remaining (lower = stronger binding) (broad panel of kinases [25]): 100%; percent of control binding remaining (lower = stronger binding) (broad panel of kinases [26]; RSK2(Kin.Dom.1-N-terminal)): 97%; percent of control binding remaining (lower = stronger binding) (broad panel of kinases [26]; RSK2(Kin.Dom.2-C-terminal)): 100%; percent of control binding remaining (lower = stronger binding) (broad panel of kinases [27]): 100%; percent of control binding remaining (lower = stronger binding) (broad panel of kinases [28]): 0%; percent of control binding remaining (lower = stronger binding) (broad panel of kinases [29]): 0.2%; percent of control binding remaining (lower = stronger binding) (broad panel of kinases [30]): 100%; percent of control binding remaining (lower = stronger binding) (broad panel of kinases [31]): 100%; percent of control binding remaining (lower = stronger binding) (broad panel of kinases [32]): 42%; percent of control binding remaining (lower = stronger binding) (broad panel of kinases [33]): 93%; percent of control binding remaining (lower = stronger binding) (broad panel of kinases [34]): 82%; percent of control binding remaining (lower = stronger binding) (broad panel of kinases [35]): 100%; percent of control binding remaining (lower = stronger binding) (broad panel of kinases [36]): 94%
